# In patent US20220324835A1 (Nurix Therapeutics, Inc., priority 2018, published 2022):
# Columns and labels:
# Cbl-b [1] = target: T1, Cbl-b (Homo sapiens, UniProt Q13191); test: Cbl-b activity assay (Cbl-b inhibition assay), TR-FRET of Cbl-b interaction with UbcH5B-Ub; type: biochemical; conditions: assay buffer with 100 mM NaCl, 60 nM Src kinase; read-out: Cbl-b activity IC50
# Outline: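 Compound-treated Cbl-b was incubated 1.5 h with Src kinase (60 nM final; 30 nM for asterisked values, which also used 50 mM instead of 100 mM NaCl), 1 mM ATP and 5 mM MgCl2. Binding to fluorescent Ub-loaded UbcH5B (C85K mutant) was then read by TR-FRET after 1 h more.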
# Cbl-b (residues 36-427) = Cbl-b (residues 36-427) (Homo sapiens, UniProt Q13191); test: Cbl-b binding assay (SPR, Biacore T200); conditions: 20° C., 1:1 binding model
# Chain of Cbl-b (residues 36-427) (Q13191 36-427): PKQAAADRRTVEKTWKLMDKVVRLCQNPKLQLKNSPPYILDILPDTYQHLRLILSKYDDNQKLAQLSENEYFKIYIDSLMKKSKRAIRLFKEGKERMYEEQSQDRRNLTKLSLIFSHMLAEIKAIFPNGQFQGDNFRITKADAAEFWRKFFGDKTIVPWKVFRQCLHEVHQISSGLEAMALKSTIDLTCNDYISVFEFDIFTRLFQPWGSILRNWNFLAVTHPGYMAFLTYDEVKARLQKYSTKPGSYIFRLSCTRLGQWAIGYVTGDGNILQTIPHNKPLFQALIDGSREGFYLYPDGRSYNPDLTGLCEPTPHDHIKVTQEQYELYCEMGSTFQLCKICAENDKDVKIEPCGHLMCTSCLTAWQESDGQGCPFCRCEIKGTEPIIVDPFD
# Outline: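 NeutrAvidin capture chip, 20° C; 50 s injections at 50 μl/min, 90-180 s dissociation; 0.3 M NaCl regeneration. Asterisked column: 50 mM NaCl buffer and 30 nM Src kinase in place of 100 mM NaCl and 60 nM Src kinase. 1:1 fit.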
# T-cell [2] = test: IL-2 secretion from T-cells stimulated with anti-CD3 antibody alone (Biological Example 2); type: cell-based; conditions: primary human total T-cells, read-out: IL-2 secretion, Anti-CD3 stimulation, fold change over baseline; for fold induction at 1 µM: 1 μM compound; for fold induction at 8 µM: 8 μM compound
# Cbl-b [3] = target: T1, Cbl-b; test: Cbl-b inhibition assay (Cbl-b activity assay, FRET, Biological Example 1; 100 mM NaCl, 60 nM Src kinase); type: biochemical; conditions: upper bound stated in text lists; read-out: IC50 values in the Cbl-b inhibition assay of Biological Example 1
# Outline: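 N-terminally biotinylated Avi-tagged Cbl-b was mixed with Src kinase, UbcH5B covalently conjugated to Bodipy-fluorescein ubiquitin, and streptavidin-terbium. Src phosphorylation lets Cbl-b bind UbcH5B-Ub, giving terbium-fluorescein FRET; inhibition is read as loss of FRET signal.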
# T-cell [4] = test: CD25 cell surface staining on T-cells co-stimulated with anti-CD3 and anti-CD28 antibody (Biological Example 2); type: cell-based, human; conditions: Homo sapiens, T-cell, primary human total T-cells, baseline = anti-CD3/anti-CD28 stimulated cells without inhibitor, read-out: CD25 staining, Anti-CD3/Anti-CD28 stimulation, fold change over baseline; for fold induction at 0.3 µM: 0.3 μM compound; for fold induction at 1 µM: 1 μM compound; for fold induction at 4 µM: 4 μM compound
# Outline: (§1)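 Values are fold-change over baseline: readings (IL-2 release, CD25 staining) from inhibitor-treated T-cells divided against untreated cells […]. No detailed procedure stated.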
# T-cell [5] = test: IL-2 secretion from T-cells co-stimulated with anti-CD3 and anti-CD28 antibody (Biological Example 2); type: cell-based, human; conditions: Homo sapiens, T-cell, primary human total T-cells, baseline = anti-CD3/anti-CD28 stimulated cells without inhibitor, read-out: IL-2 secretion, Anti-CD3/Anti-CD28 stimulation, fold change over baseline; for fold induction at 0.3 µM: 0.3 μM compound; for fold induction at 1 µM: 1 μM compound; for fold induction at 4 µM: 4 μM compound
# Outline: as §1
# T-cell [6] = test: CD25 cell surface staining on T-cells stimulated with anti-CD3 antibody alone (Biological Example 2); type: cell-based; conditions: primary human total T-cells, baseline = anti-CD3/anti-CD28 stimulated cells without inhibitor, read-out: CD25 staining, Anti-CD3 stimulation, fold change over baseline; for fold induction at 1 µM: 1 μM compound; for fold induction at 8 µM: 8 μM compound
# T1 sequence (Q13191 36-427): as above
Compound,IC50 (Cbl-b [1]) [nM],Kd (Cbl-b (residues 36-427)) [nM],fold induction at 1 µM (T-cell [2]),fold induction at 8 µM (T-cell [2]),IC50 (Cbl-b [3]) [nM],fold induction at 0.3 µM (T-cell [4]),fold induction at 1 µM (T-cell [4]),fold induction at 4 µM (T-cell [4]),fold induction at 0.3 µM (T-cell [5]),fold induction at 1 µM (T-cell [5]),fold induction at 4 µM (T-cell [5]),fold induction at 1 µM (T-cell [6]),fold induction at 8 µM (T-cell [6])
"Cc1c[nH]nc1C[C@@H](C)c1cccc(N2Cc3c(cc(C(=O)N4CCC(O)C4)cc3C(F)(F)F)C2=O)c1 (stereo in doubt) [Compound 463, 6-((S)-3-hydroxypyrrolidine-1-carbonyl)-2-(3-((R)-1-(4-methyl-1H-pyrazol-3-yl)propan-2-yl)phenyl)-4-(trifluoromethyl)isoindolin-1-one]",< 100,< 100,0.101 to 0.15,> 0.201,≤ 100,1.01 to 1.3,1.01 to 1.3,1.31 to 1.5,1.01 to 2.5,2.51 to 5,> 7.5,0.801 to 1,> 1
"Cn1cnnc1[C@H](F)C(C)(F)c1cccc(N2Cc3c(cccc3C(F)(F)F)C2=O)c1 (stereo in doubt) [Compound 479, 2-(3-((1S,2S)-1,2-difluoro-1-(4-methyl-4H-1,2,4-triazol-3-yl)propan-2-yl)phenyl)-4-(trifluoromethyl)isoindolin-1-one]",< 100,100 to 300,< 0.05,0.101 to 0.15,≤ 100,1.01 to 1.3,1.01 to 1.3,1.01 to 1.3,1.01 to 2.5,1.01 to 2.5,1.01 to 2.5,0.601 to 0.8,0.801 to 1
"C[C@H](O)CNc1cc([C@H](C)Cc2nncn2C)cc(N2Cc3c(cccc3C(F)(F)F)C2=O)n1 [Compound 364, 2-(6-((S)-2-hydroxypropylamino)-4-((R)-1-(4-methyl-4H-1,2,4-triazol-3-yl)propan-2-yl)pyridin-2-yl)-4-(trifluoromethyl)isoindolin-1-one]",301 to 1000,1000 to 3000,0.051 to 0.1,0.101 to 0.15,,1.01 to 1.3,1.01 to 1.3,1.01 to 1.3,1.01 to 2.5,1.01 to 2.5,1.01 to 2.5,0.601 to 0.8,0.601 to 0.8
"C[C@H](CO)Nc1cc([C@H](C)Cc2nncn2C)cc(N2Cc3c(cccc3C(F)(F)F)C2=O)n1 [Compound 366, 2-(6-((R)-1-hydroxypropan-2-ylamino)-4-((R)-1-(4-methyl-4H-1,2,4-triazol-3-yl)propan-2-yl)pyridin-2-yl)-4-(trifluoromethyl)isoindolin-1-one]",100 to 300,100 to 300,0.051 to 0.1,> 0.201,≤ 300,1.01 to 1.3,1.01 to 1.3,1.31 to 1.5,1.01 to 2.5,2.51 to 5,5 to 7.5,0.801 to 1,> 1
"Cc1conc1C[C@@H](C)c1cccc(N2Cc3c(cccc3C(F)(F)F)C2=O)c1 [Compound 367a, (R)-2-(3-(1-(4-Methylisoxazol-3-yl)propan-2-yl)phenyl)-4-(trifluoromethyl)isoindolin-1-one]",100 to 300,1000 to 3000,0.051 to 0.1,0.151 to 0.2,≤ 300,1.01 to 1.3,< 1,1.01 to 1.3,< 1,< 1,1.01 to 2.5,0.601 to 0.8,0.801 to 1
"C[C@H](Cc1nncn1C)c1cccc(N2Cc3c(cc(C4CC4)nc3C3CC3)C2=O)c1 [Compound 370, 4,6-dicyclopropyl-2-{3-[(2R)-1-(4-methyl-1,2,4-triazol-3-yl)propan-2-yl]phenyl}-3H-pyrrolo[3,4-c]pyridin-1-one]",100 to 300,100 to 300,0.051 to 0.1,> 0.201,≤ 300,1.01 to 1.3,1.01 to 1.3,> 1.76,1.01 to 2.5,1.01 to 2.5,5 to 7.5,0.601 to 0.8,0.801 to 1
"C[C@H](Cc1nncn1C)c1cccc(N2Cc3c(ccnc3C(F)(F)F)C2=O)c1 [Compound 371, (R)-2-(3-(1-(4-methyl-4H-1,2,4-triazol-3-yl)propan-2-yl)phenyl)-4-(trifluoromethyl)-2,3-dihydro-1H-pyrrolo[3,4-c]pyridin-1-one]",100 to 300,301 to 1000,0.101 to 0.15,> 0.201,≤ 300,1.01 to 1.3,1.01 to 1.3,1.01 to 1.3,1.01 to 2.5,2.51 to 5,5 to 7.5,0.801 to 1,> 1
"C[C@H](Cc1nncn1C)c1cccc(N2Cc3c(cc(C(C)(C)O)cc3C(F)(F)F)C2=O)c1 [Compound 374, (R)-6-(2-hydroxypropan-2-yl)-2-(3-(1-(4-methyl-4H-1,2,4-triazol-3-yl)propan-2-yl)phenyl)-4-(trifluoromethyl)isoindolin-1-one]",< 100,100 to 300,0.151 to 0.2,> 0.201,≤ 100,1.01 to 1.3,1.31 to 1.5,1.31 to 1.5,2.51 to 5,5 to 7.5,> 7.5,0.801 to 1,> 1
"Cn1cnnc1[C@H](F)[C@](C)(F)c1cccc(N2Cc3c(cc(C4CC4)cc3C(F)(F)F)C2=O)c1 [Compound 481a, 6-cyclopropyl-2-[3-[(1S,2R)-1,2-difluoro-1-(4-methyl-4H-1,2,4-triazol-3-yl)propan-2-yl]phenyl]-4-(trifluoromethyl)-2,3-dihydro-1H-isoindol-1-one]",100 to 300,100 to 300,0.051 to 0.1,0.101 to 0.15,,1.01 to 1.3,1.01 to 1.3,1.01 to 1.3,< 1,1.01 to 2.5,2.51 to 5,0.801 to 1,> 1
"C[C@H](c1cc2c(c(C(F)(F)F)c1)CN(c1cccc(C3(Cc4nncn4C)COC3)c1)C2=O)N1CCC2(CC1)CC2 [Example 558b, (R)-6-(1-(6-azaspiro[2.5]octan-6-yl)ethyl)-2-(3-(3-((4-methyl-4H-1,2,4-triazol-3-yl)methyl)oxetan-3-yl)phenyl)-4-(trifluoromethyl)isoindolin-1-one]",< 100,,> 0.201,,≤ 100,1.01 to 1.3,1.01 to 1.3,,> 7.5,> 7.5,,> 1,
